Earlier results, collected in patent US4323647A, “Steric hindrance enzyme immunoassay” (University of Miami, priority 1980, dated 1982).

Molecular target: beta-galactosidase isolated from E. coli (Escherichia coli, UniProt P00722)
Conditions: potent competitive inhibitor; Lai, et al., Biophys. Res. Comm. 54: 463-468 (1973)

Chain of beta-galactosidase isolated from E. coli (P00722 2-1024 limits assumed): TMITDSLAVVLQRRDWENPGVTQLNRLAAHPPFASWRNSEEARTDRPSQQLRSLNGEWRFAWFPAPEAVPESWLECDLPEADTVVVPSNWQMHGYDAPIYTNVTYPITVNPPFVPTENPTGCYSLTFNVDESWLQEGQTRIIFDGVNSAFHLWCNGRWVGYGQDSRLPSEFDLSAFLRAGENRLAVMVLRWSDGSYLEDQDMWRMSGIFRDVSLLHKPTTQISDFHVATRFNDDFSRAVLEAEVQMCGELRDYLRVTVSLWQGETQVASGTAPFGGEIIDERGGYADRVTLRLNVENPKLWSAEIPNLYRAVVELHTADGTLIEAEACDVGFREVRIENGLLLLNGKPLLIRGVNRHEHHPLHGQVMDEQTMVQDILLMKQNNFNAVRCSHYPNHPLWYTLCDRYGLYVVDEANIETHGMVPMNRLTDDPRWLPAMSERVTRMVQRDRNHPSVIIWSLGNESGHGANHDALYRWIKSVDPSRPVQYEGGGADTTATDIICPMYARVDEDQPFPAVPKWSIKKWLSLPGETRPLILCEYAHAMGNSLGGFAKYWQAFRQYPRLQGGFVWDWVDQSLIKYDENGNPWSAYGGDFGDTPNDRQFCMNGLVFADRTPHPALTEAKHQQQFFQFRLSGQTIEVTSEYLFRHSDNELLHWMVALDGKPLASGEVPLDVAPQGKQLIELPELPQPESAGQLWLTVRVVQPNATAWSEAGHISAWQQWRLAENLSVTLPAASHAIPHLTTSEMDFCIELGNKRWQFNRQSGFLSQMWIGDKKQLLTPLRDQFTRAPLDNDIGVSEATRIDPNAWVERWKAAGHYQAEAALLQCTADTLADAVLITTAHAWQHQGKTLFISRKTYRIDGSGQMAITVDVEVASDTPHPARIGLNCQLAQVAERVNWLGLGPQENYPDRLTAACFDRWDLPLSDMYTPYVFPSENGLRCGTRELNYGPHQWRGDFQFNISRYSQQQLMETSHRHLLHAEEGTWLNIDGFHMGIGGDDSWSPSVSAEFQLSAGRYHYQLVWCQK

## N[C@@H]1O[C@H](CO)[C@H](O)[C@H](O)[C@H]1O [beta-D-galactosylamine]
  Ki: 225 µM
